Results as given in patent US20260048028A1, “Methods of Use for Disulfiram and Metabolites Thereof” (PS Therapy, Inc., priority 2022, published 2026).

Tests used:
IL-8 mRNA = IL-8 mRNA levels in Aspergillus flavus infected human corneal epithelial cells; type: cell-based; settings: HCE cells infected with A. flavus spores
Method: 3 sets of human corneal epithelial (“HCE”) cells were plated and assayed for IL-8 mRNA levels as a control. 9 sets of HC cells were then infected with […] of Aspergillus flavus spores. 16 hours post infection the cells were assayed for IL-8 mRNA levels. 3 sets of HCE cells were then administered DSF in DMSO. Several hours following administration of each, IL-8 mRNA levels were assayed.
3 sets of HCE cells were plated and assayed for IL-8 mRNA levels as a control. 9 sets of HC cells were then infected with […] of Aspergillus flavus spores. 16 hours post infection the cells were assayed for IL-mRNA levels. 3 sets of HCE cells were then each administered NaDDC in water. Several hours following administration of each, IL-8 mRNA levels were assayed.

gasdermin D (GSDMD) = test: Alkali-burn injury in mice, RT-PCR expression of GSDMD in eyes; type: in vivo; settings: RT-PCR of enucleated eyes after 7 days of topical 300 μM NaDDC three times daily
Method: (§1) C57BL/6 mice were divided into three groups, control group 1 (n=6), group 2 (n=6) and group 3 (n=3). Each group consisted of mice with their left eye (“LE”) left undisturbed as a control, while the right eye (“RE”) of all mice in each group was subjected to alkali burn. Prior to inducing alkali burn, mice were anesthetized using an injection of an anesthetic cocktail containing ketamine (20 mg/ml) and xylazine (4 mg/ml) at a dose of approximately […] per 25 g mouse. Topical analgesia was provided using proparacaine hydrochloride (0.5%) on the corneal surface. A round filter paper piece (˜2 mm in diameter) was soaked in a 0.5 M NaOH solution. […]
(§2) On the 7th day following the alkali burn, corneal images were captured using slit microscopy to monitor changes in corneal opacity and neovascularization. The degree of corneal injury was evaluated and scored in a blinded manner by trained observers. Corneal opacity was evaluated using a grading scale ranging from 0 to 4, where 0 represented a completely clear cornea, 1 indicated slight haziness with the iris and pupil easily visible, 2 denoted slight opacity with detectable iris and pupil, 3 indicated significant opacity with difficulty in detecting pupils, and 4 represented complete opacity with no view of the pupil. […]

[1] = tested on: transforming growth factor beta 1 (TGFβ1); test: Alkali-burn injury in mice, RT-PCR expression of TGFβ1 in eyes; type: in vivo; settings: RT-PCR of enucleated eyes after 7 days of topical 300 μM NaDDC three times daily
Method: as §1, §2

C57BL/6 mice = test: Alkali-burn injury in mice, slit-lamp scoring of corneal opacity and neovascularization; type: in vivo; settings: topical three times daily for 7 days (NaDDC 300 μM); for corneal opacity mean score: grading scale 0 to 4, day 7 after alkali burn; for neovascularization score: scale 0 to 3, day 7 after alkali burn
Method: C57BL/6 mice were divided into three groups, control group 1 (n=6), group 2 (n=6) and group 3 (n=3). Each group consisted of mice with their left eye (“LE”) left undisturbed as a control, while the right eye (“RE”) of all mice in each group was subjected to alkali burn. Prior to inducing alkali burn, mice were anesthetized using an injection of an anesthetic cocktail containing ketamine (20 mg/ml) and xylazine (4 mg/ml) at a dose of approximately […] per 25 g mouse. Topical analgesia was provided using proparacaine hydrochloride (0.5%) on the corneal surface. A round filter paper piece (˜2 mm in diameter) was soaked in a 0.5 M NaOH solution. The NaOH-soaked filter paper was gently placed on the central cornea of the RE for precisely 30 seconds, generating an acute alkali burn. Following the removal of the filter paper, the RE was flushed gently with 10 ml of 1×PBS using a 10 ml syringe to ensure thorough removal of residual NaOH. Immediately after the eye flush, the treatment application was initiated for Group 2 and Group 3 mice. Group 1 was left untreated. For Group 2, a drop of 300 μM NaDDC was topically applied to the cornea of the RE. For Group 3, the RE was topically treated with commercially available prednisolone. The treatment was repeated three times daily for a duration of 7 days.
On the 7th day following the alkali burn, corneal images were captured using slit microscopy to monitor changes in corneal opacity and neovascularization. The degree of corneal injury was evaluated and scored in a blinded manner by trained observers. Corneal opacity was evaluated using a grading scale ranging from 0 to 4, where 0 represented a completely clear cornea, 1 indicated slight haziness with the iris and pupil easily visible, 2 denoted slight opacity with detectable iris and pupil, 3 indicated significant opacity with difficulty in detecting pupils, and 4 represented complete opacity with no view of the pupil. The degree of neovascularization was scored on a scale of 0 to 3, with 0 indicating no new vessels, 1 representing new vessels present at the corneal limbus, 2 denoting new vessels extending from the corneal limbus toward the corneal centre, and 3 indicating new vessels spanning the entire corneal centre. At the end of the treatment period, mice from control group 1 and NaDDC treated group 2 were sacrificed and the eyes were enucleated for further analysis, including RT-PCR studies, to investigate the expression levels of tumor necrosis factor alpha (“TNFα”), gasdermin D (“GSDMD”), intercellular adhesion molecule 1 (“ICAM1”) and transforming growth factor beta 1 (“TGFβ1”).

[2] = tested on: intercellular adhesion molecule 1 (ICAM1); test: Alkali-burn injury in mice, RT-PCR expression of ICAM1 in eyes; type: in vivo; settings: RT-PCR of enucleated eyes after 7 days of topical 300 μM NaDDC three times daily
Method: as §1, §2

IL-6 mRNA = IL-6 mRNA levels in HCE cells under hyperosmolarity; type: cell-based, human; settings: 400 milliosmoles, 6 hours post hyperosmolarity induction, −control 290 milliosmoles
Method: Sets of HCE cells were plated in iso-osmotic solutions (290 milliosmoles) […] and assayed for IL-8 and IL-6 mRNA levels as a control. Sets of HC cells were subjected to hyperosmolarity conditions (i.e. placed in a solution having an osmolarity of 400 milliosmoles) either with or without NaDDC. 6 hours post hyperosmolarity induction the cells were assayed for IL-mRNA levels.

[3] = tested on: tumor necrosis factor alpha (TNFα); test: Alkali-burn injury in mice, RT-PCR expression of TNFα in eyes; type: in vivo; settings: RT-PCR of enucleated eyes after 7 days of topical 300 μM NaDDC three times daily
Method: as §1, §2

[4] = DSF in DMSO given 16 hours post infection
[5] = NaDDC in water given 16 hours post infection

Compound	IL-8 mRNA levels (% change from uninfected) (IL-8 mRNA; [4]) [%]	IL-8 mRNA levels (% reduction from water) (IL-8 mRNA; [4]) [%]	IL-8 mRNA levels (% increase from uninfected) (IL-8 mRNA; [5]) [%]	IL-8 mRNA levels (% reduction from water) (IL-8 mRNA; [5]) [%]	GSDMD expression, % of untreated control group (gasdermin D (GSDMD)) [%]	TGFβ1 expression, % of untreated control group [1] [%]	corneal opacity mean score (C57BL/6 mice)	neovascularization score (C57BL/6 mice)	ICAM1 expression, % of untreated control group [2] [%]	IL-6 mRNA levels (% increase from −control) (IL-6 mRNA) [%]	expression level of TNFα, % of untreated control group [3] [%]
CCN(CC)C(=S)SSC(=S)N(CC)CC [DSF, 1,1′-disulfanediylbis(N,N-diethylmethanethioamide), reference compound]	21.2	88.5									
CCN(CC)C(=S)[S-].[Na+] [NaDDC, sodium;N,N-diethylcarbamodithioate]			10.5	85.19	42	28	0.83	0	5	100	8
C[C@]12C=CC(=O)C=C1CC[C@@H]1[C@@H]2[C@@H](O)C[C@@]2(C)[C@H]1CC[C@]2(O)C(=O)CO [prednisolone, reference compound]							2.67	0			
